Assay results as given in patent US20020137162A1, “Antisense oligonucleotide inhibition of specific histone deacetylase isoforms” (priority 2000, published 2002).
d = 2'-deoxy (DNA); m = 2'-O-methyl

Experiments:
[1] = test system: MDAmb231; assay: Cell growth inhibition, trypan blue cell count; assay type: cell-based, human; conditions: MDAmb231 cancer cells, 50 nM, 72 hours
Procedure: (§1) In order to determine the effect of HDAC OSDNs on cell growth and cell death through apoptosis, A549 or T24 cells, MDAmb231 cells, and HMEC cells (ATCC, Manassas, Va.) were treated with HDAC OSDNs as previously described.
(§2) Cells were harvested and cell numbers counted by trypan blue exclusion using a hemocytometer. Percentage of inhibition was calculated as (100—AS cell numbers/control cell numbers) %.

[2] = test system: A549; assay: Cell growth inhibition, trypan blue cell count; assay type: cell-based, human; conditions: A549 cancer cells, 50 nM, 72 hours
Procedure: as §1, §2

[3] = test system: T24; assay: Cell growth inhibition, trypan blue cell count; assay type: cell-based, human; conditions: T24 cancer cells, 50 nM, 72 hours
Procedure: as §1, §2

[4] = test system: MDAmb231; assay: Apoptosis, Cell Death Detection ELISA; assay type: cell-based, human; conditions: fold over non-specific background, TSA at 100 ng/ml
Procedure: as §1
(§3) For the apoptosis study, cells were analyzed using the Cell Death Detection ELISA ^PLUSkit (Roche Diagnostic GmBH, Mannheim, Germany) according to the manufacturer's directions. Typically, 10,000 cells were plated in 96-well tissue culture dishes for 2 hours before harvest and lysis. Each sample was analyzed in duplicate. ELISA reading was done using a MR700 plate reader (DYNEX Technology, Ashford, Middlesex, England) at 410 nm. The reference was set at 490 nm.

[5] = test system: A549; assay: Apoptosis, Cell Death Detection ELISA; assay type: cell-based, human; conditions: fold over non-specific background, TSA at 100 ng/ml
Procedure: as §1, §3

[6] = test system: HMEC; assay: Apoptosis, Cell Death Detection ELISA; assay type: cell-based, human; conditions: fold over non-specific background, TSA at 100 ng/ml
Procedure: as §1, §3

[7] = test system: T24; assay: Apoptosis, Cell Death Detection ELISA; assay type: cell-based, human; conditions: fold over non-specific background, TSA at 100 ng/ml
Procedure: as §1, §3

[8] = test system: p21 protein; assay: Western blot of p21 protein in A549 cells; assay type: cell-based, human
Procedure: Experiments were also conducted to examine the affect of HDAC antisense oligonucleotides on HDAC protein expression. In A549 cells, treatment with HDAC-4 antisene oligonucleotides results in a dramatic increase in the level of p21 protein (FIG. 15).

[9] = test system: human HDAC-4; assay: Antisense ODN screen, HDAC-4 RNA, T24 cells; assay type: cell-based; conditions: 100 nM, 24 hours, Northern blot
Procedure: Seventeen phosphorothioate ODNs containing sequences complementary to the 5′ or 3′ UTR of the human HDAC-4 gene (GenBank Accession No. AB006626) were screened as above. […] HDAC-4 MM1 and MM2 oligonucleotides were created as controls; compared to the antisense oligonucleotides, they each contain a 6-base mismatch.
(§4) Briefly, human A549 and/or T24 human bladder carcinoma cells were seeded in 10 cm tissue culture dishes one day prior to oligonucleotide treatment. The cell lines were obtained from the American Type Culture Collection (ATCC) (Manassas, Va.) and were grown under the recommended culture conditions. Before the addition of the oligonucleotides, cells were washed with PBS (phosphate buffered saline). Next, lipofectin transfection reagent (GIBCO BRL Mississauga, Ontario, Calif.), at a concentration of 6.25 μg/ml, was added to serum free OPTIMEM medium (GIBCO BRL, Rockville, Md.), which was then added to the cells. The oligonucleotides to be screened were then added directly to the cells (i.e., one oligonucleotide per plate of cells). Mismatched oligonucleotides were used as controls. The same concentration of oligonucleotide (e.g., 50 nM) was used per plate of cells for each oligonucleotide tested.
(§5) Cells were harvested, and total RNAs were analyzed by Northern blot analysis. Briefly, total RNA was extracted using RNeasy miniprep columns (QIAGEN). […]

[10] = test system: A549 cells; assay: Growth in soft agar, colony count; assay type: cell-based, human; conditions: colonies counted after three weeks
Procedure: 1.3 g granulated agar (DIDFCO) was added to 100 ml deionized water and boiled in a microwave to sterilize. The boiled agar was held at 55 C until further use. Iscove's Modified Dulbecco×s Medium (GIBCO/BRL), 100× Penicillin-Streptomycin-Glutamine (GIBCO/BRL) and fetal bovine serum (medicorp) were pre-warmed at 37 C. To 50 ml sterile tubes was added 9 ml Isove's medium, 2 ml fetal bovine serum and 0.2 ml 100× Pen-Strep-Gln. Then 9 ml 55 C 1.3% agar was added to each tube. The tube contents were mixed immediately, avoiding air bubbles, and 2.5 ml of the mixture was poured into each sterile 6 cm petri dish to form a polymerized bottom layer. Dishes with polymerized bottom layers were then put in a CO2 incubator at 37 C until further use. In 50 ml sterile tubes were prewarmed at 37 C for each 4 cell lines/samples, 20 ml Iscove's medium, 0.4 ml 100× Pen-Strep-Gln and 8 ml fetal bovine serum. Cells were trypsinized and counted by trypan blue staining and 20,000 cells were aliquotted into a sterile 15 ml tube. To the tube was then added DMEM with low glucose (GIBCO/BRL)+10% fetal bovine serum+Pen-Strep-Gln to a final volume of 1 ml. To the prewarmed 37 C mix in the 50 ml tube was quickly added 8 ml 55 C 1.3% agar, which was then mixed well. […] Plates were wrapped up in foil paper and incubated in a CO2 incubator at 37° C. for three weeks, at which time colonies in agar are counted.

[11] = test system: HMEC; assay: Cell growth inhibition, trypan blue cell count; assay type: cell-based, human; conditions: HMEC normal cells, 50 nM, 72 hours
Procedure: as §1, §2

[12] = test system: HDAC-6 protein; assay: Western blot of HDAC isotype protein expression in A549 cells, HDAC-6; assay type: cell-based, human; conditions: 50 nM, 48 hours
Procedure: (§6) OSDN treatment conditions were as previously described.
(§7) Cells were lysed in buffer containing 1% Triton X-100, 0.5% sodium deoxycholate, 5 mM EDTA, 25 mM Tris-HC1, pH 7.5, plus protease inhibitors. Total protein was quantified by the protein assay reagent from Bio-Rad (Hercules, Calif.). 100 ug of total protein was analyzed by SDS-PAGE. Next, total protein was transferred onto a PVDF membrane and probed with various HDAC-specific primary antibodies. Rabbit anti-HDAC-1 (H-51), anti-HDAC-2 (H-54) antibodies (Santa Cruz Biotechnologies, Santa Cruz, Calif.) were used at 1:500 dilution. Rabbit anti-HDAC-3 antibody (Sigma, St. Louis, Mo.) was used at a dilution of 1:1000. Anti-HDAC-4 antibody was prepared as previously described (Wang, S. H. et al., (1999) Mol. Cell. Biol. 19:7816-27), and was used at a dilution of 1:1000. Anti-HDAC-6 antibody was raised by immunizing rabbits with a GST fusion protein containing a fragment of HDAC-6 protein (amino acid #990 to #1216, GenBank Accession No. AAD29048). Rabbit antiserum was tested and found only to react specifically to the human HDAC-6 isoform. HDAC-6 antiserum was used at 1:500 dilution in Western blots to detect HDAC-6 in total cell lysates. Horse Radish Peroxidase conjugated secondary antibody was used at a dilution of 1:5000 to detect primary antibody binding. […]

[13] = test system: human cancer cells; assay: Cell growth and apoptosis, summary for cancer cells; assay type: cell-based; conditions: for growth arrest and apoptosis of human cancer cells: Tables 3 and 4
Procedure: as §1, §3, §2

[14] = test system: human HDAC-6; assay: Antisense ODN screen, HDAC-6 RNA, T24 cells; assay type: cell-based; conditions: 100 nM, 24 hours, Northern blot
Procedure: Thirteen phosphorothloate ODNs containing sequences complementary to the 5′ or 3′ untranslated regions of the human HDAC-6 gene (GenBank Accession No. AJ011972) were screened as above. […] HDAC-6MM oligo was created as a control; compared to the antisense oligo, it contains a 7-base mismatch.
as §4, §5

[15] = test system: HDAC-3 protein; assay: Western blot of HDAC isotype protein expression in A549 cells, HDAC-3; assay type: cell-based, human; conditions: 50 nM, 48 hours
Procedure: as §6, §7

[16] = test system: human HDAC-3; assay: Antisense ODN screen, HDAC-3 RNA, T24 cells; assay type: cell-based; conditions: 100 nM, 24 hours, Northern blot
Procedure: Twenty-one phosphorothioate ODNs containing sequences complementary to the 5′ or 3′ UTR of the human HDAC-3 gene (GenBank Accession No. AF039703) were screened as above. […] HDAC-3 MM oligonucleotide was created as a control; compared to the antisense oligonucleotide, it contains a 6-base mismatch.
as §4, §5

[17] = test system: HDAC-2 protein; assay: Western blot of HDAC isotype protein expression in A549 cells, HDAC-2; assay type: cell-based, human; conditions: 50 nM, 48 hours
Procedure: as §6, §7

[18] = test system: human HDAC-2; assay: Antisense ODN screen, HDAC-2 RNA, T24 cells; assay type: cell-based; conditions: 100 nM, 24 hours, Northern blot
Procedure: Twenty-four phosphorothioate ODNs containing sequences complementary to the 5′ or 3′ UTR of the human HDAC-2 gene (GenBank Accession No. U31814) were screened as above. […] HDAC-2 MM was created as a control; compared to the antisense oligo, it contains a 7-base mismatch.
as §4, §5

Substance | Growth Inhibition (AS vs. MM) [1] | Growth Inhibition (AS vs. MM) [2] | Growth Inhibition (AS vs. MM) [3] | Apoptosis After 48 Hour Treatment [4] | Apoptosis After 48 Hour Treatment [5] | Apoptosis After 48 Hour Treatment [6] | Apoptosis After 48 Hour Treatment [7] | level of p21 protein [8] | antisense activity to human HDAC-4 [9] | growth of A549 cells in soft agar [10] | Growth Inhibition (AS vs. MM) [11] | HDAC-6 protein expression [12] | growth arrest and apoptosis of human cancer cells [13] | antisense activity to human HDAC-6 [14] | HDAC-3 protein expression [15] | antisense activity to human HDAC-3 [16] | HDAC-2 protein expression [17] | antisense activity to human HDAC-2 [18] | cancer cell growth inhibition ([13]; summary of Table 3)
5-GCTGCCTGCCGTGCCCACCC-3′ (sugars from the 5' end m4 d12 m4, all phosphorothioate, methylation of C and T or U not given here) [HDAC-4 AS1] | ++ (“++”: 50-75% inhibition) | +++ (“+++”: >75% inhibition) | ++ (“++”: 50-75% inhibition) | ++ (“++”: 3-5X fold) | +++ (“+++”: 5-8X fold) | − (“−”: <= 2x fold over non-specific background) | + (“+”: 2-3X fold) | induces the expression | antisense activity |  |  |  |  |  |  |  |  |  | 
5′-CAGGCTGGAATGAGCTACAG-3′ (chemistry not given here) [HDAC-6 AS] |  | − (“−”: no inhibition) | − (“−”: no inhibition) | − (“−”: <= 2x fold over non-specific background) | − (“−”: <= 2x fold over non-specific background) | − (“−”: <= 2x fold over non-specific background) | − (“−”: <= 2x fold over non-specific background) |  |  | do not | − (“−”: no inhibition) | specifically inhibits | no effect | antisense activity |  |  |  |  | 
5′-CGCTTTCCTTGTCATTGACA-3′ (chemistry not given here) [HDAC-3 AS] | − (“−”: no inhibition) | − (“−”: no inhibition) | − (“−”: no inhibition) | − (“−”: <= 2x fold over non-specific background) | − (“−”: <= 2x fold over non-specific background) | − (“−”: <= 2x fold over non-specific background) | − (“−”: <= 2x fold over non-specific background) |  |  |  | − (“−”: no inhibition) |  | no effect |  | specifically inhibits | antisense activity |  |  | 
5′-GCTGAGCTGTTCTGATTTGG-3′ (chemistry not given here) [HDAC-2 AS] | − (“−”: no inhibition) |  |  | − (“−”: <= 2x fold over non-specific background) | − (“−”: <= 2x fold over non-specific background) | − (“−”: <= 2x fold over non-specific background) | − (“−”: <= 2x fold over non-specific background) |  |  | do not |  |  |  |  |  |  | specifically inhibits | antisense activity | minimal effect
